According to ChEMBL document CHEMBL3120136 (J Med Chem, 2014):
In brackets after ≈: the same amount, converted by molar mass. *1 amine or outer side, *2 acyl side, *3 side chain or, on linkers, in order; H or OH if unused. Where a SMILES comes first, the peptide text is derived from it. Side-chain parts run from the residue outwards. [ ]: non-standard residue; d: D form. The star is where a group is joined. Tetrahydroisoquinolin(2-yl) = c1ccc2c(c1)CCN(*)C2; Ac3c(1R,2S-2-vinyl) = C=C[C@@H]1C[C@]1(N)C(=O)O; Hyp = O=C(O)[C@@H]1C[C@@H](O)CN1; Chg = N[C@H](C(=O)O)C1CCCCC1; CO = O=C([*:1])[*:2]; Carbamoyl = NC(=O)*

Legend:
Hepatitis C virus = assay: Antiviral activity against Hepatitis C virus infected in human HuH7 cells assessed as inhibition of HCV subgenomic replicon replication after 72 hrs by ELISA; assay type: functional, organism-based, Hepacivirus hominis, Huh-7
[1] = Inhibition of Hepatitis C virus full-length NS3/4A protease assessed as quenched-fluorogenic RET-S1 substrate cleavage incubated for 10 mins prior to substrate addition by FRET analysis; set-up: species or system Hepacivirus hominis
Rattus norvegicus = assay: Volume of distribution at steady state in Sprague-Dawley rat at 1 mg/kg, iv by HPLC-MS/MS analysis; details: in vivo
[2] = Aqueous solubility of the compound at pH 7.4 by modified shake-flask method; assay type: physicochemical
[3] = Ratio of AUC (0 to 24 hrs) in liver to plasma in Sprague-Dawley rat at 30 mg/kg, po by HPLC-MS/MS analysis; assay type: ADME, organism-based; set-up: dose 30 mg/kg, route oral; details: Sprague-Dawley, liver and plasma, read-out: Ratio AUC
[4] = Plasma clearance in rat assessed as extraction ratio; assay type: ADME, organism-based; details: read-out: ERH
[5] = Metabolic stability in dog hepatocytes assessed as extraction ratio at 1 uM; assay type: ADME, cell-based, Canis lupus familiaris, Hepatocyte; details: read-out: ERH
[6] = Metabolic stability in cynomolgus monkey hepatocytes assessed as extraction ratio at 1 uM; assay type: ADME, cell-based, Macaca fascicularis, Hepatocyte; details: read-out: ERH
[7] = AUC (0 to 24 hrs) in Sprague-Dawley rat plasma at 30 mg/kg, po by HPLC-MS/MS analysis; assay type: ADME, organism-based; set-up: time < 24 hr, dose 30 mg/kg, route oral
[8] = Lipophilicity, log D of the compound; assay type: physicochemical; details: octanol/water
[9] = Efflux ratio of permeability from basolateral to apical side over apical to basolateral side in human Caco2 cells; assay type: ADME, cell-based; details: Caco-2
[10] = Metabolic stability in human hepatocytes assessed as extraction ratio at 1 uM; assay type: ADME, cell-based, Hepatocyte; details: read-out: ERH
[11] = AUC (0 to 24 hrs) in Sprague-Dawley rat liver at 30 mg/kg, po by HPLC-MS/MS analysis; assay type: ADME, organism-based; set-up: time < 24 hr, dose 30 mg/kg, route oral
[12] = Metabolic stability in rat hepatocytes assessed as extraction ratio at 1 uM; assay type: ADME, cell-based, Hepatocyte; details: read-out: ERH
[13] = Aqueous solubility of the compound at pH 6.5 by modified shake-flask method; assay type: physicochemical
[14] = Permeability from apical to basolateral side of human Caco2 cells; assay type: ADME, cell-based; details: Caco-2, read-out: permeability
[15] = Aqueous solubility of the compound at pH 1.2 by modified shake-flask method; assay type: physicochemical
[16] = Hepatitis C virus, Huh-7, 72 h, read-out: EC50

Structure (SMILES) | EC50 (Hepatitis C virus; [16]) | IC50 [1] | further results
CC(C)(C)OC(=O)N[C@H]1CCCCC/C=C\[C@@H]2C[C@@]2(C(=O)O)NC(=O)[C@@H]2C[C@@H](OC(=O)N3Cc4ccc(F)cc4C3)CN2C1=O | 3220 nM | 38 nM | –
CC(C)(C)OC(=O)N[C@H]1CCCCC/C=C\[C@@H]2C[C@@]2(C(=O)NS(=O)(=O)C2CC2)NC(=O)[C@@H]2C[C@@H](OC(=O)N3Cc4ccccc4C(O)C3)CN2C1=O (some centres not stated) | 718 nM | 2.2 nM | –
CC(C)(C)OC(=O)N[C@H]1CCCCC/C=C\[C@@H]2C[C@@]2(C(=O)O)NC(=O)[C@@H]2C[C@@H](O)CN2C1=O | – | > 50000 nM | EC50 (Hepatitis C virus; huh-7): Not Active
CN(C)S(=O)(=O)NC(=O)[C@@]12C[C@H]1/C=C\CCCCC[C@H](NC(=O)OC(C)(C)C)C(=O)N1C[C@H](OC(=O)N3Cc4ccccc4C3)C[C@H]1C(=O)N2 | 2.8 nM | 2.5 nM | Vdss (Rattus norvegicus): 2.583 L/kg; solubility thermodynamic [2]: > 1000 µg/mL; Kp [3]: 132; hepatic extraction ratio [4]: > 1; hepatic extraction ratio at 1 µM [5]: 0.16; hepatic extraction ratio at 1 µM [6]: 0.56; AUC(0-t) at 24 h [7]: 1030 ng·h/mL; logD [8]: 2.5; efflux ratio [9]: > 2; hepatic extraction ratio at 1 µM [10]: 0.56; AUC(0-t) at 24 h [11]: 136000 ng·h/mL; hepatic extraction ratio at 1 µM [12]: 0.16; solubility thermodynamic [13]: 165 µg/mL (≈ 230 µM); Papp A→B [14]: < 2 ×10⁻⁶ cm/s; solubility thermodynamic [15]: 0.5 µg/mL (≈ 0.697 µM)
CC(C)(C)OC(=O)N[C@H]1CCCCC/C=C\[C@@H]2C[C@@]2(C(=O)NS(=O)(=O)C2CC2)NC(=O)[C@@H]2C[C@@H](OC(=O)N3Cc4cccc(Cl)c4C3)CN2C1=O | 2.2 nM | 3 nM | –
CC(C)(C)OC(=O)N[C@H]1CCCCC/C=C\[C@@H]2C[C@@]2(C(=O)NS(=O)(=O)C2CC2)NC(=O)[C@@H]2C[C@@H](OC(=O)N3Cc4cccc(Br)c4C3)CN2C1=O | 49 nM | 1.1 nM | –
CC(C)(C)OC(=O)N[C@H]1CCCCC/C=C\[C@@H]2C[C@@]2(C(=O)NS(=O)(=O)C2CC2)NC(=O)[C@@H]2C[C@@H](OC(=O)N3Cc4cccc(C(F)(F)F)c4C3)CN2C1=O | 29 nM | 1.2 nM | –
CC(C)(C)OC(=O)N[C@H]1CCCCC/C=C\[C@@H]2C[C@@]2(C(=O)NS(=O)(=O)C2CC2)NC(=O)[C@@H]2C[C@@H](OC(=O)N3Cc4cccc(N)c4C3)CN2C1=O | 4.1 nM | 0.2 nM | –
CC(C)(C)OC(=O)N[C@H]1CCCCC/C=C\[C@@H]2C[C@@]2(C(=O)NS(=O)(=O)C2CC2)NC(=O)[C@@H]2C[C@@H](OC(=O)N3Cc4ccc(F)cc4C3)CN2C1=O | 4 nM | 3 nM | –
CC(C)(C)OC(=O)N[C@H]1CCCCC/C=C\[C@@H]2C[C@@]2(C(=O)NS(=O)(=O)C2CC2)NC(=O)[C@@H]2C[C@@H](OC(=O)N3Cc4ccc(C(F)(F)F)cc4C3)CN2C1=O | 20 nM | 21 nM | –
COc1ccc2c(c1)CN(C(=O)O[C@@H]1C[C@H]3C(=O)N[C@]4(C(=O)NS(=O)(=O)C5CC5)C[C@H]4/C=C\CCCCC[C@H](NC(=O)OC(C)(C)C)C(=O)N3C1)C2 | 22 nM | 2.3 nM | –
CC(C)(C)OC(=O)N[C@H]1CCCCC/C=C\[C@@H]2C[C@@]2(C(=O)NS(=O)(=O)C2CC2)NC(=O)[C@@H]2C[C@@H](OC(=O)N3Cc4ccc(C#N)cc4C3)CN2C1=O | 112 nM | 2.5 nM | –
CC(C)(C)OC(=O)N[C@H]1CCCCC/C=C\[C@@H]2C[C@@]2(C(=O)NS(=O)(=O)C2CC2)NC(=O)[C@@H]2C[C@@H](OC(=O)N3Cc4ccc(Cl)cc4C3)CN2C1=O | 9.2 nM | 2 nM | –
CC(C)(C)OC(=O)N[C@H]1CCCCC/C=C\[C@@H]2C[C@@]2(C(=O)NS(=O)(=O)C2CC2)NC(=O)[C@@H]2C[C@@H](OC(=O)N3Cc4ccc(N)cc4C3)CN2C1=O | 42 nM | 1.5 nM | –
CC(C)(C)OC(=O)N[C@H]1CCCCC/C=C\[C@@H]2C[C@@]2(C(=O)NS(=O)(=O)C2CC2)NC(=O)[C@@H]2C[C@@H](OC(=O)N3Cc4c(F)ccc(F)c4C3)CN2C1=O | 5.1 nM | 0.7 nM | –
CC(C)(C)OC(=O)N[C@H]1CCCCC/C=C\[C@@H]2C[C@@]2(C(=O)NS(=O)(=O)C2CC2)NC(=O)[C@@H]2C[C@@H](OC(=O)N3Cc4c(Cl)ccc(Cl)c4C3)CN2C1=O | 7.3 nM | 1.7 nM | –
CC(C)(C)OC(=O)N[C@H]1CCCCC/C=C\[C@@H]2C[C@@]2(C(=O)NS(=O)(=O)C2CC2)NC(=O)[C@@H]2C[C@@H](OC(=O)N3CCc4cccc(F)c4C3)CN2C1=O | 12 nM | 1.1 nM | –
CC(C)(C)OC(=O)N[C@H]1CCCCC/C=C\[C@@H]2C[C@@]2(C(=O)NS(=O)(=O)C2CC2)NC(=O)[C@@H]2C[C@@H](OC(=O)N3CCc4cccc(Cl)c4C3)CN2C1=O | 43 nM | 2.1 nM | –

Structure (SMILES) | EC50 (Hepatitis C virus; [16]) | IC50 [1] | further results
CC(C)(C)OC(=O)N[C@H]1CCCCC/C=C\[C@@H]2C[C@@]2(C(=O)NS(=O)(=O)C2CC2)NC(=O)[C@@H]2C[C@@H](OC(=O)N3CCc4cccc(C(F)(F)F)c4C3)CN2C1=O | 13 nM | 0.8 nM | –
CC(C)(C)OC(=O)N[C@H]1CCCCC/C=C\[C@@H]2C[C@@]2(C(=O)NS(=O)(=O)C2CC2)NC(=O)[C@@H]2C[C@@H](OC(=O)N3CCc4c(F)ccc(F)c4C3)CN2C1=O | 24 nM | 1.2 nM | –
CC(C)(C)OC(=O)N[C@H]1CCCCC/C=C\[C@@H]2C[C@@]2(C(=O)O)NC(=O)[C@@H]2C[C@@H](OC(=O)N3Cc4ccccc4C3)CN2C1=O | 1550 nM | 11 nM | –
CC(C)(C)OC(=O)N[C@H]1CCCCC/C=C\[C@@H]2C[C@@]2(C(=O)O)NC(=O)[C@@H]2C[C@@H](OC(=O)N3Cc4cccc(Cl)c4C3)CN2C1=O | 516 nM | 13 nM | –
CC(C)(C)OC(=O)N[C@H]1CCCCC/C=C\[C@@H]2C[C@@]2(C(=O)O)NC(=O)[C@@H]2C[C@@H](OC(=O)N3Cc4cccc(F)c4C3)CN2C1=O | 1270 nM | 10 nM | –
CC(C)(C)OC(=O)N[C@H]1CCCCC/C=C\[C@@H]2C[C@@]2(C(=O)O)NC(=O)[C@@H]2C[C@@H](OC(=O)N3Cc4ccc(C(F)(F)F)cc4C3)CN2C1=O | 7520 nM | 195 nM | –
CC(C)(C)OC(=O)N[C@H]1CCCCC/C=C\[C@@H]2C[C@@]2(C(=O)O)NC(=O)[C@@H]2C[C@@H](OC(=O)N3Cc4ccc(Cl)cc4C3)CN2C1=O | 3160 nM | 110 nM | –
CC(C)(C)OC(=O)N[C@H]1CCCCC/C=C\[C@@H]2C[C@@]2(C(=O)O)NC(=O)[C@@H]2C[C@@H](OC(=O)N3Cc4cc(Cl)c(Cl)cc4C3)CN2C1=O | 25000 nM | 483 nM | –
CC(C)(C)OC(=O)N[C@H]1CCCCC/C=C\[C@@H]2C[C@@]2(C(=O)O)NC(=O)[C@@H]2C[C@@H](OC(=O)N3Cc4c(Cl)ccc(Cl)c4C3)CN2C1=O | 1480 nM | 21 nM | –
CC1CN(C(=O)O[C@@H]2C[C@H]3C(=O)N[C@]4(C(=O)NS(=O)(=O)C5CC5)C[C@H]4/C=C\CCCCC[C@H](NC(=O)OC(C)(C)C)C(=O)N3C2)Cc2ccccc21 (some centres not stated) | 5.7 nM | 1 nM | –
CC(C)(C)OC(=O)N[C@H]1CCCCC/C=C\[C@@H]2C[C@@]2(C(=O)NS(=O)(=O)C2CC2)NC(=O)[C@@H]2C[C@@H](OC(=O)N3Cc4ccccc4C(C)(C)C3)CN2C1=O | 7.7 nM | 0.8 nM | –
CC(C)(C)OC(=O)N[C@H]1CCCCC/C=C\[C@@H]2C[C@@]2(C(=O)NS(=O)(=O)C2CC2)NC(=O)[C@@H]2C[C@@H](OC(=O)N3CCc4c(F)cccc4C3)CN2C1=O | 12 nM | 0.7 nM | –
CN(C)c1cccc2c1CCN(C(=O)O[C@@H]1C[C@H]3C(=O)N[C@]4(C(=O)NS(=O)(=O)C5CC5)C[C@H]4/C=C\CCCCC[C@H](NC(=O)OC(C)(C)C)C(=O)N3C1)C2 | 20 nM | 2.4 nM | –
CC(C)(C)OC(=O)N[C@H]1CCCCC/C=C\[C@@H]2C[C@@]2(C(=O)NS(=O)(=O)C2CC2)NC(=O)[C@@H]2C[C@@H](OC(=O)N3CCc4cc(F)ccc4C3)CN2C1=O | 11 nM | 2 nM | –
CC(C)(C)OC(=O)N[C@H]1CCCCC/C=C\[C@@H]2C[C@@]2(C(=O)NS(=O)(=O)C2CC2)NC(=O)[C@@H]2C[C@@H](OC(=O)N3CCc4cc(C(F)(F)F)ccc4C3)CN2C1=O | 35 nM | 2.6 nM | –
CC(C)(C)OC(=O)N[C@H]1CCCCC/C=C\[C@@H]2C[C@@]2(C(=O)NS(=O)(=O)C2CC2)NC(=O)[C@@H]2C[C@@H](OC(=O)N3CCc4ccc(Cl)cc4C3)CN2C1=O | 65 nM | 4.1 nM | –
C=C[C@@H]1C[C@]1(NC(=O)[C@@H]1C[C@@H](OC(N)=O)CN1C(=O)[C@@H](NC(=O)[C@@H](NC(C)=O)C1CCCCC1)C(C)C)C(=O)O (Ac-[Chg]V[Hyp](Carbamoyl)[Ac3c(1R,2S-2-vinyl)]-OH) | > 10000 nM | 200 nM | –
C=C[C@@H]1C[C@]1(NC(=O)[C@@H]1C[C@@H](OC(=O)N2CCc3ccccc3C2)CN1C(=O)[C@@H](NC(=O)[C@@H](NC(C)=O)C1CCCCC1)C(C)C)C(=O)O (Ac-[Chg]V[Hyp]([CO-Tetrahydroisoquinolin(2-yl)])[Ac3c(1R,2S-2-vinyl)]-OH) | > 10000 nM | 210 nM | –
